≈ marks a conversion by molar mass, not a printed value. Where two headings read alike, the source gives them in different places.
Columns and labels:
[1] = tested on: Saccharomyces cerevisiae 90 (yeast); assay: Antifungal MIC, Table 5; assay type: cell-based; settings: Culture ATCC 4226
KB cells = assay: KB monolayer cytotoxicity test; assay type: cell-based, human
Solubility in solvents = assay type: physicochemical
[2] = tested on: Rhizoctonia solani (damping off diseases); assay: Activity against plant disease fungi on several crops; assay type: in vivo
[3] = tested on: Paecilomyces varioti M16 (fungus); assay: Antifungal MIC, Table 5; assay type: cell-based; settings: Culture ATCC 26820
wood decay organisms = assay: Fungicidal activity; assay type: in vivo; settings: spraying as 25% wettable powder
[4] = tested on: Piricularia oryzae (rice blast disease); settings: in vivo
[5] = tested on: Penicillium digitatum 0184 (mold); assay: Antifungal MIC, Table 5; assay type: cell-based; settings: Culture ATCC 26821
Colorado potato beetle = assay: Larvicidal activity; assay type: in vivo
mice = assay: 24 hour acute toxicity in mice; assay type: in vivo
bean beetle = assay: Larvicidal activity; assay type: in vivo
[6] = tested on: Candida albicans 155 (yeast); assay: Antifungal MIC, Table 5; assay type: cell-based; settings: Culture NRRL 477
[7] = tested on: Botrytis cinerea (grey mold diseases); assay: Activity against plant disease fungi on several crops; assay type: in vivo
housefly = assay: Larvicidal activity; assay type: in vivo
mosquito larvae = assay: Larvicidal activity; assay type: in vivo
crown rust of oats = assay: Fungicidal activity; assay type: in vivo; settings: spraying as 25% wettable powder
[8] = tested on: Puccinia species (cereal rust disease); assay: Activity against plant disease fungi on several crops; assay type: in vivo
[9] = tested on: Uromyces species (cereal rust disease); assay: as above; assay type: in vivo
army worm = assay: Larvicidal activity; assay type: in vivo

In the case of `C/C=C/[C@H]1O[C@@](O)([C@@H](C)[C@H](O)[C@H](C)[C@H]2OC(=O)/C(OC)=C/C(C)=C/[C@@H](C)[C@@H](O)[C@@H](CC)[C@@H](O)[C@H](C)C/C(C)=C/C=C/[C@@H]2OC)C[C@@H](O[C@H]2C[C@@H](O)[C@H](OC(N)=O)[C@@H](C)O2)[C@@H]1C`, the MIC value [1] is reported as 3.33 µg/mL (≈ 3.84 µM), the ID50 (KB cells) is reported as 0.0045 µg/mL (≈ 0.0052 µM) and the solubility (Solubility in solvents; in 95% ethanol) is reported as 47.5 mg/mL (≈ 54800 µM). For the same compound, the solubility (Solubility in solvents; in acetone) was over 100 mg/mL, the solubility (Solubility in solvents; in benzyl alcohol) was over 100 mg/mL and the solubility (Solubility in solvents; in dimethylformamide) was over 100 mg/mL. The solubility (Solubility in solvents; in glycerine) was under 1 mg/mL, the solubility (Solubility in solvents; in methanol) was over 100 mg/mL and the solubility (Solubility in solvents; in polyethylene glycol 400) was under 1 mg/mL. The solubility (Solubility in solvents; in propylene glycol) was under 1 mg/mL, the solubility (Solubility in solvents; in tetrahydrofuran) was over 100 mg/mL and the solubility (Solubility in solvents; in water) was under 1 mg/mL. The “activity against Rhizoctonia solani” value [2] was “active”, the MIC value [3] was 3.33 µg/mL (≈ 3.84 µM) and the fungicidal activity (wood decay organisms) was “exhibits fungicidal activity”. The “activity against Piricularia oryzae” value [4] was “active”, the fungicidal activity [4] was “exhibits fungicidal activity” and the MIC value [5] was 3.33 µg/mL (≈ 3.84 µM). For the same compound, the larvicidal activity (Colorado potato beetle) was “excellent activity”, the larvicidal activity (Colorado potato beetle; spraying on leaves) was “exhibits larvicidal activity” and the “24 hour acute toxicity (LD50)” value (mice; i.p.) was 2.45 mg/kg. The “24 hour acute toxicity (LD50)” value (mice; p.o.) was 21 mg/kg, the larvicidal activity (bean beetle) was “excellent activity” and the larvicidal activity (bean beetle; spraying on leaves) was “exhibits larvicidal activity”. For the same compound, the MIC value [6] was 1.11 µg/mL (≈ 1.28 µM), the fungicidal activity ([7]; grey mold, spraying as 25% wettable powder) was “exhibits fungicidal activity” and the “activity against Botrytis cinerea” value ([7]; on several crops) was “active”. For the same compound, the larvicidal activity (housefly) was “excellent activity”, the larvicidal activity (mosquito larvae; mosquito larvae) was “excellent activity” and the larvicidal activity (mosquito larvae; mosquito, spraying) was “exhibits larvicidal activity”. For the same compound, the fungicidal activity (crown rust of oats) was “exhibits fungicidal activity”, the “activity against Puccinia species” value [8] was “active” and the “activity against Uromyces species” value [9] was “active”. For the same compound, the larvicidal activity (army worm) was “excellent activity”.
